The target in this experiment is T1, α1a-AR (Homo sapiens, UniProt P35348).
T1 construct: expressed in transfected cells; host or cells: COS cells, pcDNA3 vector, transient DEAE-dextran transfection
T1 sequence (P35348 1-466): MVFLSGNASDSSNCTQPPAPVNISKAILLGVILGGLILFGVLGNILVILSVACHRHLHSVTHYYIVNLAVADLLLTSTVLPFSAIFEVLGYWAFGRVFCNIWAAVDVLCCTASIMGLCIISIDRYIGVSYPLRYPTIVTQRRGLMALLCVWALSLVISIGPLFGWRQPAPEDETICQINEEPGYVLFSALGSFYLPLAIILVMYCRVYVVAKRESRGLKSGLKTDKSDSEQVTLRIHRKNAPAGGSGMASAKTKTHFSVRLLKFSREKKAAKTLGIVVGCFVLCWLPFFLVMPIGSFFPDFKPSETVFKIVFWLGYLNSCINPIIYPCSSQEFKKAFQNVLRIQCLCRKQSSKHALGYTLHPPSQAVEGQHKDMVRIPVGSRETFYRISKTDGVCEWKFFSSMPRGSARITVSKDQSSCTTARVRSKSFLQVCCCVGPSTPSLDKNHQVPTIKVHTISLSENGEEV
In words: radioligand ([125I]-HEAT) receptor binding assay, COS cell membranes expressing cloned receptor. Particulars: [125I]-HEAT 50 pM, 1 hour room temperature. An excerpt:
The first assay tested the ability of compounds of Formula I to bind to membrane bound receptors α1a-AR, α1b-AR and α1d-AR.
The DNA sequences of the three cloned human α1-AR subtypes have been published. […] We used published DNA sequence information to design primers for use in RT-PCR amplification of each subtype to obtain cloned cDNAs. Human poly A+ RNA was obtained from commercially available sources and included hippocampus and prostate samples, sources which have been cited in the literature. For the primary screen a radioligand binding assay was used which employed membrane preparations from cells expressing the individual cloned receptor cDNAs. […] Each α1 receptor subtype was cloned from poly A+ RNA by the standard method of reverse transcription-polymerase chain reaction (RT-PCR). The following sources of polyA+ RNA were used for the cloning of the α1 receptor subtypes: α1a-AR, human hippocampus and prostate, α1b-AR, human hippocampus, α1d-AR, human hippocampus. The resulting cDNAs were cloned into the pcDNA3 mammalian expression vector (Invitrogen Corp., San Diego Calif.). Each DNA was sequenced for verification and to detect any possible mutations introduced during the amplification process. Any deviation in sequence from the published consensus for each receptor subtype was corrected by site-directed mutagenesis.
The three α1-AR subtypes (a, b, d) were transfected into COS cells using a standard DEAE-dextran procedure with a chloroquine shock. […] Approximately 72 hours post-transfection, the cells were harvested and COS membranes were prepared. Transfected COS cells from 25 plates (100 mm) were scraped and suspended in 15 mL of TE buffer (50 mM Tris-HCl, 5 mM EDTA, pH 7.4). The suspension was disrupted with a homogenizer. It was then centrifuged at 1000× g for 10 minutes at 4° C. […] The pellet was resuspended in 5 mL TNE buffer (50 mM Tris-HCl, 5 mM EDTA, 150 mM NaCl, pH 7.4). The resulting membrane preparation was aliquoted and stored at −70° C. The protein concentration was determined following membrane solubilization with TritonX-100.
The ability of each compound to bind to each of the α1-AR subtypes was assessed in a receptor binding assay. […] The plate was incubated for 1 hour at room temperature and the reaction mixtures were filtered through a Packard GF/C Unifilter filter plate. The filter plate was dried for 1 hour in a vacuum oven. Scintillation fluid ([…]) was added to each well, and the filter plate was counted in a Packard Topcount scintillation counter. Data was analyzed using GraphPad Prism software.
As to `CC(C)Oc1ccccc1N1CCN(CC(O)CNC(=O)c2ccc3c(c2)C(=O)N(c2ccc(C(C)(C)C)cc2)C3=O)CC1` (stereo not shown) [Compound 41], the half-maximal inhibitory concentration (IC50) (as a rule, the midpoint of a concentration-inhibition curve) came out at 3.5 nM.
Molecule `CC(C)Oc1ccccc1N1CCN(CC(O)CNC(=O)c2ccc3c(c2)C(=O)N(c2cccc(Cl)c2)C3=O)CC1` (stereo not shown) [Compound 54] showed an IC50 of 0.73 nM.
The molecule `CC(C)Oc1ccccc1N1CCN(CC(O)CNC(=O)c2ccc3c(c2)C(=O)N(c2ccccc2)C3=O)CC1` (stereo not shown) [Compound 51] yielded an IC50 of 0.9 nM.
In the case of `Cc1ccc(N2C(=O)c3ccc(C(=O)NCC(O)CN4CCN(c5ccccc5OC(C)C)CC4)cc3C2=O)cc1C` (stereo not shown) [Compound 39], the IC50 amounted to 0.44 nM.
Take `CC(C)Oc1ccccc1N1CCN(CC(O)CNC(=O)c2ccc3c(c2)C(=O)N(c2ccc(F)cc2)C3=O)CC1` (stereo not shown) [Compound 50]: the half-inhibitory concentration (IC50) was found to be 1.5 nM.
`CC(C)Oc1ccccc1N1CCN(CC(O)CNC(=O)c2ccc3c(c2)C(=O)N(c2ccc(Cl)cc2)C3=O)CC1` (stereo not shown) [Compound 53] yielded an IC50 of 0.95 nM.
On to `Cc1ccc(N2C(=O)c3ccc(C(=O)NCCCN4CCN(c5ccccc5OC(C)C)CC4)cc3C2=O)cc1` [Compound 46], for which the IC50 stood at 0.1 nM.
The molecule `COC(CNC(=O)c1ccc2c(c1)C(=O)N(c1cccc(F)c1)C2=O)CN1CCN(c2ccccc2OC(C)C)CC1` (stereo not shown) [Compound 14] yielded an IC50 of 7 nM.
The same measure for `Cc1ccc(N2C(=O)c3ccc(C(=O)NCC(O)CN4CCN(c5ccccc5OC(C)C)CC4)cc3C2=O)cc1` (stereo not shown) [Compound 52]: 0.66 nM.
Take `COc1ccc(N2C(=O)c3ccc(C(=O)NCCCN4CCN(c5ccccc5OC(C)C)CC4)cc3C2=O)cc1` [Compound 45]: the IC50 came to 0.11 nM.
`CC(=O)c1ccc(N2C(=O)c3ccc(C(=O)NCC(O)CN4CCN(c5ccccc5OC(C)C)CC4)cc3C2=O)cc1` (stereo not shown) [Compound 48]: the IC50 came to 1 nM.
`CC(C)Oc1ccccc1N1CCN(C[C@H](O)CNC(=O)c2ccc3c(c2)C(=O)N(c2cccc(F)c2)C3=O)CC1` [Compound 27]: the half-inhibitory concentration (IC50) is 8 nM.
In turn, `CC(C)Oc1ccccc1N1CCN(CC(O)CNC(=O)c2ccc3c(c2)C(=O)N(c2ccc(O)cc2)C3=O)CC1` (single isomer, unassigned) [Compound 35] came in with an IC50 of 0.46 nM.
In turn, `CC(C)Oc1ccccc1N1CCN(CC(O)CNC(=O)c2ccc3c(c2)C(=O)N(c2ccc(Cl)c(Cl)c2)C3=O)CC1` (stereo not shown) [Compound 56] registered a concentration for half-maximal inhibition (IC50) of 0.81 nM.
As to `CC(C)Oc1ccccc1N1CCN(CC(O)CNC(=O)c2ccc3c(c2)C(=O)N(c2ccc(N(C)C)cc2)C3=O)CC1` (stereo not shown) [Compound 28], the concentration for half-maximal inhibition (IC50) stood at 0.8 nM.
Consider `Cc1cccc(N2C(=O)c3ccc(C(=O)NCC(O)CN4CCN(c5ccccc5OC(C)C)CC4)cc3C2=O)c1` (stereo not shown) [Compound 49], for which the concentration for half-maximal inhibition (IC50) came to 0.9 nM. This IC50 and that of the molecule before are within 1.5-fold of each other.
To `CC(C)Oc1ccccc1N1CCN(C[C@@H](O)CNC(=O)c2ccc3c(c2)C(=O)N(c2cccc(F)c2)C3=O)CC1` [Compound 9] belongs 1 nM; to `CCOc1ccccc1N1CCN(CC(O)CNC(=O)c2ccc3c(c2)C(=O)N(c2cccc(F)c2)C3=O)CC1` (stereo not shown) [Compound 42], 4.25 nM.
The same measure for `CC(C)Oc1ccccc1N1CCN(CCCNC(=O)c2ccc3c(c2)C(=O)N(c2ccc(N(C)C)cc2)C3=O)CC1` [Compound 44]: 0.18 nM; for `CC(C)Oc1ccccc1N1CCN(CCCNC(=O)c2ccc3c(c2)C(=O)N(c2cccc(F)c2)C3=O)CC1` [Compound 6]: 0.41 nM; for `CC(C)Oc1ccccc1N1CCN(CC(O)CNC(=O)c2ccc3c(c2)C(=O)N(c2cccc(F)c2)C3=O)CC1` (racemic) [Compound 4]: 1.5 nM.
The same measure for `COc1ccccc1N1C(=O)c2ccc(C(=O)NCC(O)CN3CCN(c4ccccc4OC(C)C)CC3)cc2C1=O` (stereo not shown) [Compound 26]: 1.6 nM.
In the case of `CC(C)Oc1ccccc1N1CCN(CC(O)CNC(=O)c2ccc3c(c2)C(=O)N(c2cccnc2)C3=O)CC1` (stereo not shown) [Compound 11], the half-inhibitory concentration (IC50) amounted to 1.9 nM. The IC50 values of the last two molecules are within 1.5-fold of each other.
In turn, `CC(C)Oc1ccccc1N1CCN(CC(O)CNC(=O)c2ccc3c(c2)C(=O)N(c2cc(F)cc(F)c2)C3=O)CC1` (stereo not shown) [Compound 29] had a concentration for half-maximal inhibition (IC50) of 0.89 nM.
`CC(C)Oc1ccccc1N1CCN(CC(O)CNC(=O)c2ccc3c(c2)C(=O)N(c2ccc(O)cc2)C3=O)CC1` (stereo not shown) [Compound 58] gave a half-maximal inhibitory concentration (IC50) of 0.88 nM.
In turn, `CC(C)Oc1ccccc1N1CCN(CC(O)CNC(=O)c2ccc3c(c2)C(=O)N(c2ccc([N+](=O)[O-])cc2)C3=O)CC1` (stereo not shown) [Compound 30] gave a half-maximal inhibitory concentration (IC50) of 1.8 nM.
`CC(C)Oc1ccccc1N1CCN(C[C@@H](O)CNC(=O)c2ccc3c(c2)C(=O)N(c2ccc(N(C)C)cc2)C3=O)CC1` [Compound 21, (S)-2-[4-(dimethylamino)phenyl]-2,3-dihydro-N-[2-hydroxy-3-[4-[2-(1-methylethoxy)phenyl]-1-piperazinyl]propyl]-1,3-dioxo-1H-isoindole-5-carboxamide] registered an IC50 of 0.36 nM. This IC50 lies about 5-fold lower than the previous one.
For the molecule `CC(C)Oc1ccccc1N1CCN(CC(O)CNC(=O)c2ccc3c(c2)C(=O)N(c2cccc(C(F)(F)F)c2)C3=O)CC1` (stereo not shown) [Compound 57], the IC50 came to 0.74 nM.
In the case of `CC(C)Oc1ccccc1N1CCN(CCCNC(=O)c2ccc3c(c2)C(=O)N(c2ccc(O)cc2)C3=O)CC1` [Compound 47], the IC50 was determined as 0.2 nM.
As for `COc1ccccc1N1CCN(CC(O)CNC(=O)c2ccc3c(c2)C(=O)N(c2cccc(F)c2)C3=O)CC1` (stereo not shown) [Compound 43], the IC50 came out at 22 nM. Compared with the last molecule, the IC50 is about 110-fold higher.
`COc1ccc(N2C(=O)c3ccc(C(=O)NCC(O)CN4CCN(c5ccccc5OC(C)C)CC4)cc3C2=O)cc1OC` (stereo not shown) [Compound 38]: the concentration for half-maximal inhibition (IC50) came out at 0.93 nM.

(Values after patent US6780994B2, “Phthalimido arylpiperazines useful in the treatment of benign prostatic hyperplasia” (Ortho-McNeil Pharmaceutical, Inc., priority 1998, dated 2004).)
